Consider one molecule from patent US11696903B2, “Compounds and methods for scavenging dicarbonyl electrophiles” (VANDERBILT UNIVERSITY, priority 2019, dated 2023).

Entries after “also recorded” stand apart in the source; their conditions may differ.

Data set [1] can be described thus: EtHOBA concentration in the colon by LC/ESI/MS/MS. The format is in vivo. The note with it: 1.5 and 3.7 mg/ml, after 6 days of treatment. As for the experimental part:
FIGS. 3A and 3B show data from C57BL/6 mice were treated or not with various concentrations of EtHOBA. (A) Body weight was assessed every day. (B) After 6 days, mice were euthanized and EtHOBA was measured in the colon. n=5 mice/group.
The present inventors analyzed the effect of various concentrations of EtHOBA and its bioavailability in control mice. […] After 6 days of treatment, EtHOBA concentrations in the colon were analyzed using liquid chromatography electrospray ionization tandem mass spectrometry (LC/EST/MS/MS).

Data set [2] has as its system LG-histone adducts in RAW264.7 cells. The data set is described as follows: LG-lysyl adduct formation on histones in RAW264.7 cells (LC/ESI/MS/MS). Type of data set: cell-based, mouse. As for the experimental part: FIGS. 11A, 11B, 11C, 11D, 11E, and 11F are a series of graphs showing that LG-lysine adducts of histones are found in cells and tissue, dependent on COX-2 activity. RAW264.7 mouse macrophage (A) and A549 human lung carcinoma (C) cells were stimulated to express COX-2, then given 20 μM arachidonic acid (AA) or vehicle. A subgroup of cells was preincubated 45 min with 50 μM indomethacin. As a measure of COX activity, PGE2 was determined by GC/MS from cell media prior to lysis (B and D). Nuclei were isolated, and histones were extracted and digested to individual amino acids prior to LC/EST/MS/MS analysis. *, p<0.05; ***, p<0.001 by ANOVA followed by Tukey's post-test (n≥5). (E). Histones were extracted from nuclei of rat liver, and analyzed as above for LG-lactam adduct. COX-2 protein was analyzed by Western blotting and plotted against lactam adduct levels. Each point corresponds to 1 liver, and shown is the line of regression (r^2=0.7237). Pearson r=0.8507; two-tailed p=0.0152. (F) LC-MS chromatograph of histones isolated from a rat liver with relatively high COX-2 expression (COX-2 band intensity of 117 arbitrary units).
(A). Scavengers were screened in RAW264.7 cells for the ability to decrease LG adduct formation on histones. Scavengers used were glucosamine (GA), 3-methoxysalicylamine (3-MoSA), pentylpyridoxamine (PPM), and 5-ethylsalicylamine (EtSA). Cells were stimulated to express COX-2, pretreated 45 min. with 500 μM scavenger or vehicle (H2O), and given 20 μM AA for 1 h before lysing and extracting histones. Histone proteins were analyzed by LC/ESI/MS/MS for LG-lysyl lactam adduct, n=2. (B) Stimulated A549 cells were pretreated with 30, 300, or 1000 μM EtSA prior to 1 h with 20 μM AA, and histones analyzed for LG-lysyl adduct. *, p<0.05 by one-way ANOVA followed by Dunnett's multiple comparisons post-test (n=3-5). (C). A549 cells were stimulated, pretreated 45 min. with 1000 μM EtSA or H2O vehicle, and given 20 μM AA for 1 h. Media was analyzed by GC/MS for PGE2 (n=3). There was no effect on PGE2 production at lower doses of EtSA (data not shown).
To stimulate COX-2 expression, A549 or RAW264.7 cells were treated overnight with 5 ng/mL IL-1B (A549) or 10 μg/mL LPS and 10 U/mL IFNγ (RAW264.7) in serum-free medium. When indicated, cells were pretreated with indomethacin, aldehyde scavengers (glucosamine, 3-MoSA, PPM or EtSA), or vehicle (ethanol for indomethacin, H2O for scavengers) for 45 min, and then given 20 μM arachidonic acid (AA) or DMSO vehicle for 1 h before lysing.
Cultured cells were lysed in hypotonic buffer (10 mM Tris/10 mM NaCl/3 mM MgCl2) containing 1 mM pyridoxamine and 100 μM indomethacin to prevent the artifactual formation of LGE2 during the lytic process. […] Protein concentration was determined using the method of Bradford. […]

In data set [3] the test system is INS-GAS mice infected with H. pylori. The data set is described as follows: H. pylori-induced gastric dysplasia and carcinoma in INS-GAS mice. The format is in vivo. As for the experimental part:
FIGS. 16A, 16B, 16C, 16D, 16E, and 16F show INS-GAS mice (8 per group) were infected or not with H. pylori strain PMS for 8 weeks and then treated with EtSA (7.5 mg/ml) one week after infection. (A) EtSA concentration in gastric tissues; **P<0.01, ****P<0.0001 vs. mice without EtSA. (B) Frequency of diagnoses. IMC, intramucosal carcinoma; LGD, low grade dysplasia; ND, no dysplasia. (C) Quantification of extent of dysplasia and cancer as a percentage of tissue sections. (D) H&E staining of INS-GAS mouse stomach tissues, showing carcinoma in an infected mouse; scale bar, 50 μm. In B and C, *P<0.05, **P<0.01 vs. infected mice.
As discussed further in the Examples, the human gastric epithelial cell line AGS was infected with Hp PMSS1±10 mM EtSA. FVB/N insulin-gastrin (INS-GAS) mice and Mongolian gerbils were infected for 8 wk with Hp PMSS1 and 7.13, respectively; EtSA (0.75% in water) was given to animals beginning one wk post-infection. Lys-LG adducts, a marker of electrophile reactions, and EtSA were quantified by LC/EST/MS/MS. Histology was analyzed on H&E staining. DNA damage was evaluated by pH2AX staining. Hp colonization was quantified by culture. Mucosal immune responses were determined by RNA profiling and by Luminex assay. Mice were imaged using PET/CT with ^18F-FDG (inflammation marker) and ^18F—NaF (tumor marker).
The effect of a scavenger of levuglandins and other dicarbonyls was investigated in transgenic INS-GAS mice, which have high circulating gastrin levels and develop atrophic gastritis, and dysplasia and carcinoma with H. pylori infection. Mice were infected with H. pylori, and then EtSA was administered in drinking water, starting 7 days after infection. After 8 weeks, EtSA levels were measured in the gastric tissues of uninfected and infected mice receiving this compound (FIG. 16A). […] There was no dysplasia or carcinoma in uninfected mice (FIG. 16D).

[4] abbreviates: H. pylori-infected INS-GAS mice treated with EtSA, 8 weeks, 37.5% without EtSA.

With `CCc1ccc(O)c(CN)c1` [EtHOBA, 5-ethyl-2-hydroxybenzylamine], the “EtHOBA concentrations in the colon” value in data set [1] is given as “readily detected”. For the same molecule, the “potency in protecting histones from modification by levuglandins” value in data set [2] (in comparison with salicylamine, pyridoxamine and their other analogues) is recorded as “most potent”. The “LG adduct formation on histones” value in data set [2] (stimulated RAW264.7, 500 μM scavenger 45 min, 20 μM AA 1 h) is “most effectively blocked”. In data set [3] (setting [4]), this molecule registered a development of carcinoma of 0% and a development of dysplasia of 14.3%. For the same molecule, the “extent of dysplasia and carcinoma” value in data set [3] (Hp-infected INS-GAS mice treated with EtSA, percentage of gastric mucosa) was “significantly attenuated; also recorded: decreases”. Further, the “frequency of intramucosal carcinoma” value in data set [3] (Hp-infected INS-GAS mice treated with EtSA, 69% without EtSA, p<0.05) came to 28%.
